# From paper PMC7228089, “Odiparcil, a potential glycosaminoglycans clearance therapy in mucopolysaccharidosis VI—Evidence from in vitro and in vivo models” (PLoS ONE, 2020)
# Legend:
# [1] = tested on: Bovine aortic endothelial cells; experiment: Secretion of [35S]-labelled sulphated GAG into culture medium of BAE cells; assay type: cell-based; settings: for Mean CSGAG (%) of total secreted sulphated GAG / Mean HSGAG (%) of total secreted sulphated GAG: BAE cell culture media; for Mean CSGAG (%) of total secreted sulphated GAG: CSase ABC degradation; for Mean HSGAG (%) of total secreted sulphated GAG: Heparitinase II degradation; for Maximum stimulation of HSGAG secretion (fold over the base level): at 10 μM odiparcil
# Description: GAG secreted into cell culture supernatant were analysed in Bovine aortic endothelial cells (ECACC 92010601), cultured in 6-well plates and incubated for 24 h in the presence of [^35S] sodium sulphate ([…]; 0.1% final concentration of DMSO). The culture supernatants were recovered and the unincorporated [^35S] was then removed by gel filtration on Sephadex G25 columns, the GAG being eluted in the column exclusion fraction (V0). A solution of cetylpyridinium chloride (0.1% final concentration) was added to the eluent in order to precipitate the GAG for 24 h at room temperature. The samples were then centrifuged and the supernatant was removed. The precipitate obtained was re-suspended in 2 M magnesium chloride and the GAG were precipitated with 5 volumes of 95% ethanol. After centrifugation, the alcoholic precipitates were re-suspended in 0.9% sodium chloride and then the radioactivity was measured.
# In order to sort the GAG produced in the supernatants from cells in culture, the re-suspended alcoholic precipitates were treated with chondroitinase ABC (Proteus vulgaris) in a proportion of 0.5 mU/μL, for 3 h at 37°C. After inactivation of the enzyme for 3 min at 100°C, the undigested GAG were precipitated with 5 volumes of 95% ethanol, overnight at 4°C. After centrifugation, the alcoholic precipitates were re-suspended in 0.9% sodium chloride and then the radioactivity was measured on an aliquot fraction after addition of scintillation fluid in counting vials. GAG of heparan sulphate type were treated with heparinase II (Flavobacterium heparinum) in a proportion of 4 mU/μl, for 12 h at 30°C. After inactivation of the enzyme for 3 min at 100°C, the undigested GAG were precipitated with 5 volumes of 95% ethanol, overnight at 4°C. After centrifugation, the alcoholic precipitates were re-suspended in 0.9% sodium chloride and then the radioactivity was measured on an aliquot fraction after addition of scintillation fluid in counting vials.
# [2] = tested on: Primary skin fibroblasts from MPS VI patients GM00538 and GM02572; experiment: Intracellular chondroitin sulphate ([CS-56] immunofluorescence) in MPS VI patient skin fibroblasts; assay type: cell-based, human; settings: 72 h
# Description: Primary skin fibroblasts from MPS VI patients GM00538 and GM02572 were obtained from the NIGMS Human Genetic Cell Repository at the Coriell Institute for Medical Research. Cell culturing was done according to the conditions provided by the Coriell Institute. For evaluation of the effect of odiparcil, cells were seeded in 96 well imaging plates (Falcon Cat N 353219) and two types of treatment were evaluated: i) prophylactic conditions—cells were treated with odiparcil before reaching confluence, 24 hours after plating; and ii) curative conditions—cells were treated with odiparcil after reaching confluence (10 days culturing). Cells were treated by odiparcil added to the culture media. This was done by replacing the initial culture media by media containing 0.1% DMSO with or without odiparcil (at 0.01, 0.03, 0.1, 0.3, 1, 3 and 10 μM). For treatment, the cells were incubated for 72 hours at 37°C, 5% CO2. All experimental conditions were performed in triplicate, i.e., 3 wells/test condition.
# After odiparcil treatment as described above, culture media were removed to be used for dimethylmethylene blue (DMMB) assay and the cells were fixed in PFA 4%. […]
# For statistical analyses, commercial software (GraphPad Prism 5) was used. EC50 were calculated using the build in function Nonlinear fit for “log (inhibitor) vs. response—Variable slope (four parameters)”. […]
# [3] = BAE cells, 24 h, [35S] sulphate
smiles,measurement,setting,value
"Cc1cc(=O)oc2cc(O[C@@H]3SC[C@@H](O)[C@H](O)[C@H]3O)ccc12 [Odiparcil, 4-methyl-7-(5-thio-β-D-xylopyranosyloxy)-2 H-chromen-2-one]",Mean CSGAG (%) of total secreted sulphated GAG,[1]; odiparcil 0.1 µM,78.5%
same,Mean HSGAG (%) of total secreted sulphated GAG,[1]; odiparcil 0.1 µM,34.5%
same,Mean CSGAG (%) of total secreted sulphated GAG,[1]; odiparcil 0.3 µM,83.5%
same,Mean HSGAG (%) of total secreted sulphated GAG,[1]; odiparcil 0.3 µM,28.0%
same,Mean CSGAG (%) of total secreted sulphated GAG,[1]; odiparcil 1 µM,83.9%
same,Mean HSGAG (%) of total secreted sulphated GAG,[1]; odiparcil 1 µM,16.0%
same,Mean CSGAG (%) of total secreted sulphated GAG,[1]; odiparcil 3 µM,82.5%
same,Mean HSGAG (%) of total secreted sulphated GAG,[1]; odiparcil 3 µM,15.0%
same,Mean CSGAG (%) of total secreted sulphated GAG,[1]; odiparcil 10 µM,73.5%
same,Mean HSGAG (%) of total secreted sulphated GAG,[1]; odiparcil 10 µM,19.5%
same,Maximum CS-like GAGs (fold stimulation over the base level),[1]; [3],12.2 fold
same,Maximum stimulation of total GAG secretion (fold over the base level),"[1]; BAE cells, 24 h, [35S] sulphate, achieved with 3 μM odiparcil",10.7 fold
same,Maximum stimulation of HSGAG secretion (fold over the base level),[1]; [3],4.92 fold
same,Maximum stimulation of HSGAG secretion (fold over the base level),"[1]; BAE cells, 24 h, [35S] sulphate, listed as odiparcil",4.9 fold
same,Effect on intracellular pool of CS,[2]; 10 μM odiparcil,almost completely eliminated intracellular pool of CS
same,EC50,"[2]; Homo sapiens, Skin fibroblast, growing and confluent cell culture conditions, read-out: EC50 for the reduction of intracellular CS levels",~1000 nM
